From patent publication US11814367B2, “Inhibitors of glycogen synthase 1 (GYS1) and methods of use thereof” (Maze Therapeutics, Inc., priority 2021, dated 2023)

Columns and labels:
[1] = target: hGYS1 enzyme (recombinant hGYS1/GN1 protein) (Homo sapiens (Human), UniProt P13807); assay: GYS1 coupled enzyme assay (PK/LDH); assay type: biochemical; settings: hGYS1/GN1 50 nM, UDP-Glucose 0.8 mM, G6P 1 mM; geometric mean of at least 2 runs
[2] = system: hGYS1 enzyme / glycogen synthesis in HeLa cells; assay: GYS1 cell based assay (glycogen synthesis, Glucose-glo); design: species or system human; settings: Homo sapiens, HeLa, 24 h, 24 h incubation, 20 mM glucose, geometric mean of at least 2 runs
Outline: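 HeLa cells starved 24 h in medium containing only 1× Glutamax were plated onto compound in medium with 20 mM glucose (1% DMSO final) for 24 h, 37 °C, 5% CO2. Acid lysates were Tris-quenched, glucoamylase-digested (pH 5.3, 1 h, 37 °C) and read by Glucose-glo luminescence. IC50 came from Hill fits, as geometric mean of ≥2 runs.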

[3] = target: hGYS2 enzyme (recombinant hGYS2/GN1 protein) (Homo sapiens (Human), UniProt P54840); assay: GYS2 coupled enzyme assay (PK/LDH); assay type: biochemical; settings: geometric mean of at least 2 assay runs on separate days, read-out: Avg_IC50
Sequence of hGYS2 enzyme (recombinant hGYS2/GN1 protein) (P54840 whole entry): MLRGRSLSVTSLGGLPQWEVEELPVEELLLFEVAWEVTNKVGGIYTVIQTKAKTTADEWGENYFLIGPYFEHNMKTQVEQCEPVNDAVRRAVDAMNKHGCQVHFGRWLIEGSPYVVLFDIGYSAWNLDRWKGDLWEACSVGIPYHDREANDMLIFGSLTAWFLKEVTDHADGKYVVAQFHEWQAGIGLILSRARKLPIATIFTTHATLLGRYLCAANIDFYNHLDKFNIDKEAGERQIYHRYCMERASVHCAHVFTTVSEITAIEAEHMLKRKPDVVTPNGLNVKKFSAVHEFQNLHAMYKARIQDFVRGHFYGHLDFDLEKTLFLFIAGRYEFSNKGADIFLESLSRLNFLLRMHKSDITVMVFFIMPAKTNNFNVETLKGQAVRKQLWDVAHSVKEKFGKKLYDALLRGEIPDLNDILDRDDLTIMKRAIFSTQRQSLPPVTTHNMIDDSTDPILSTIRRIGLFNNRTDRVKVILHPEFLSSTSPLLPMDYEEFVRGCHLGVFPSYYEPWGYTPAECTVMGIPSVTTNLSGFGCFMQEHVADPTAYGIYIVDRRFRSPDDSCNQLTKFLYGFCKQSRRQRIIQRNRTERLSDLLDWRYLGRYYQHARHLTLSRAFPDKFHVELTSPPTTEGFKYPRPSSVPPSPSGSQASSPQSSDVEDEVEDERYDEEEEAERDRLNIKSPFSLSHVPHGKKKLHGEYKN
Sequence of hGYS2 enzyme (recombinant hGYS2/GN1 protein) (P46976 whole entry partner): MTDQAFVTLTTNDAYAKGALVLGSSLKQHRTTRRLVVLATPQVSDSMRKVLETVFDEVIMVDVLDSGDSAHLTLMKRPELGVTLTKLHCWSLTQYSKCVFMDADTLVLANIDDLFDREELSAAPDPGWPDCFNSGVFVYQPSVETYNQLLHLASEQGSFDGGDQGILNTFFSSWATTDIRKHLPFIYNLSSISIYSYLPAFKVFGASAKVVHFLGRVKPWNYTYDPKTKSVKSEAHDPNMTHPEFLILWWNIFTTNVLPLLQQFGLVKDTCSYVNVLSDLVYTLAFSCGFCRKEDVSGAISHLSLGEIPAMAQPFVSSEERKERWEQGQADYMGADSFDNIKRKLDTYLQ
Outline: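 Read-out: NADH loss at 340 nm, read each minute for 10 min, slope normalized to controls, duplicate % inhibition fit to Hill (0–100). Enzyme: 200 nM hGYS2/GN1; substrate 2 mM UDP-glucose plus 0.2% glycogen and 2 mM G6P; pH 7.5 Tris, 2.5% DMSO.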

Sequence of hGYS1 enzyme (recombinant hGYS1/GN1 protein) (P13807 whole entry): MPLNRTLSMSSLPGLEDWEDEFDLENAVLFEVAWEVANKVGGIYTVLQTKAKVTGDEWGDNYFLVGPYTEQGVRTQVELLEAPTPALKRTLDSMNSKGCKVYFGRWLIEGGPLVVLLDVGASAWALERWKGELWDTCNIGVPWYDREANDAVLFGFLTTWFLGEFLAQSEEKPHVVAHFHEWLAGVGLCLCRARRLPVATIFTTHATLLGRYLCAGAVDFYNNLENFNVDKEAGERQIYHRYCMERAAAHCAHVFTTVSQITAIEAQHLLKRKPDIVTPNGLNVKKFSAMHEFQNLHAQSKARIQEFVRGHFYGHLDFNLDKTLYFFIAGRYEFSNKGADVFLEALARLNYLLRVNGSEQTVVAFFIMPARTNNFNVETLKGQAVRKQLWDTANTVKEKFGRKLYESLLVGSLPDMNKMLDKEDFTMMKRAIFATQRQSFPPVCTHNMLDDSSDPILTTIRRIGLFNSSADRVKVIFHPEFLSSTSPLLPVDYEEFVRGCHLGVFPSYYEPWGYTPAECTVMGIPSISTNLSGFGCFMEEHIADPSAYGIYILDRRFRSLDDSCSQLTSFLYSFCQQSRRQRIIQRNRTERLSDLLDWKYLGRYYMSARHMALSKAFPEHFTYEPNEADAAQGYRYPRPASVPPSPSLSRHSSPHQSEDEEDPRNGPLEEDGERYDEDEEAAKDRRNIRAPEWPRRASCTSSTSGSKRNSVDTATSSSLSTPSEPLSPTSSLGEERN
Sequence of hGYS1 enzyme (recombinant hGYS1/GN1 protein) (P46976 whole entry partner): as the sequence (P46976 whole entry partner) above

Row | Structure (SMILES) | IC50 [1] [nM] | IC50 [2] [nM] | IC50 [3] [µM]
1 | CC(C)c1ccc([C@@H](NC(=O)[C@@H]2C[C@@H](F)CN2C(=O)Cc2[nH]nnc2N2CCNCC2)c2ccccc2)cc1F [Compound 369, (2S,4R)-4-fluoro-N-[(S)-[3-fluoro-4-(propan-2-yl)phenyl](phenyl)methyl]-1-{2-[4-(piperazin-1-yl)-1H-1,2,3-triazol-5-yl]acetyl}pyrrolidine-2-carboxamide] | 537 | > 30000 | > 100
2 | CC(C)c1ccc([C@@H](NC(=O)[C@@H]2C[C@@H](F)CN2C(=O)Cc2[nH]nnc2N2CCOCC2)c2ccccc2)cc1F [Compound 371, (2S,4R)-4-fluoro-N-[(S)-[3-fluoro-4-(propan-2-yl)phenyl](phenyl)methyl]-1-{2-[4-(morpholin-4-yl)-1H-1,2,3-triazol-5-yl]acetyl}pyrrolidine-2-carboxamide] | 343 | 3880 | > 100
3 | CC(C)c1ccc([C@@H](NC(=O)[C@@H]2C[C@@H](F)CN2C(=O)Cn2cc(C(F)(F)F)nn2)c2ccccc2)cc1F [Compound 372, (2S,4R)-4-fluoro-N-[(S)-[3-fluoro-4-(propan-2-yl)phenyl](phenyl)methyl]-1-{2-[4-(trifluoromethyl)-1H-1,2,3-triazol-1-yl]acetyl}pyrrolidine-2-carboxamide] | 36 | 1100 | > 100
4 | Cc1cn(CC(=O)N2C[C@H](F)C[C@H]2C(=O)N[C@@H](c2ccccc2)c2ccc(C(C)C)c(F)c2)nn1 [Compound 373, (2S,4R)-4-fluoro-N-[(S)-[3-fluoro-4-(propan-2-yl)phenyl](phenyl)methyl]-1-[2-(4-methyl-1H-1,2,3-triazol-1-yl)acetyl]pyrrolidine-2-carboxamide] | 14 | 210 | > 100
5 | Cc1cnnn1CC(=O)N1C[C@H](F)C[C@H]1C(=O)N[C@@H](c1ccccc1)c1ccc(C(C)C)c(F)c1 [Compound 374, (2S,4R)-4-fluoro-N-[(S)-[3-fluoro-4-(propan-2-yl)phenyl](phenyl)methyl]-1-[2-(5-methyl-1H-1,2,3-triazol-1-yl)acetyl]pyrrolidine-2-carboxamide] | 22 | 360 | > 100
6 | CC(C)c1ccc([C@@H](NC(=O)[C@@H]2C[C@@H](F)CN2C(=O)Cn2cc(N3CCNCC3)nn2)c2ccccc2)cc1F [Compound 375, (2S,4R)-4-fluoro-N-[(S)-[3-fluoro-4-(propan-2-yl)phenyl](phenyl)methyl]-1-{2-[4-(piperazin-1-yl)-1H-1,2,3-triazol-1-yl]acetyl}pyrrolidine-2-carboxamide] | 6 | 570 | > 77.4

Other lines, results leading:

Row | IC50 [1] [nM] | IC50 [2] [nM] | IC50 [3] [µM] | Structure (SMILES)
7 | 12 | 140 | > 100 | CC(C)c1ccc([C@@H](NC(=O)[C@@H]2C[C@@H](F)CN2C(=O)Cn2cc(N(C)C)nn2)c2ccccc2)cc1F [Compound 377, (2S,4R)-1-{2-[4-(dimethylamino)-1H-1,2,3-triazol-1-yl]acetyl}-4-fluoro-N-[(S)-[3-fluoro-4-(propan-2-yl)phenyl](phenyl)methyl] pyrrolidine-2-carboxamide]
8 | 6 | 170 | > 100 | CC(C)c1ccc([C@@H](NC(=O)[C@@H]2C[C@@H](F)CN2C(=O)Cn2ncc(N(C)C)n2)c2ccccc2)cc1F [Compound 378, (2S,4R)-1-{2-[4-(dimethylamino)-2H-1,2,3-triazol-2-yl]acetyl}-4-fluoro-N-[(S)-[3-fluoro-4-(propan-2-yl)phenyl](phenyl)methyl] pyrrolidine-2-carboxamide]
9 | 8 | 190 | > 100 | CC(C)c1ccc([C@@H](NC(=O)[C@@H]2C[C@@H](F)CN2C(=O)Cc2cccn3c(=O)[nH]nc23)c2ccccc2)cc1F [Compound 379, (2S,4R)-4-fluoro-N-[(S)-[3-fluoro-4-(propan-2-yl)phenyl](phenyl)methyl]-1-(2-{3-oxo-2H,3H-[1,2,4]triazolo[4,3-a]pyridin-8-yl}acetyl)pyrrolidine-2-carboxamide]
